Data set [1] is described as follows: Electrical conductivity of human cadaver skin during electrotransport with permeation enhancer (Example 1). Conditions: for Normalized Skin Conductivity (after 5 hrs): control = 1.00, 100 μA/cm^2, about 32° C.; for enhancement (skin conductivity), in words: comparison among tested enhancers, with/without ethanol. The method, then: (§1) Human cadaver skin was prepared by first removing about 1 mm thick skin samples with an electric dermatome in the form of strips. The skin strips were placed in polyethylene bags, sealed and placed in a refrigerator at about 4° C. for temporary storage. Prior to use in the electrotransport cell, the skin strips were placed in one-liter beakers containing water at 60° C. for about 90 seconds with gentle stirring. Then, the skin strips were removed and placed onto the absorbent side of a piece of BENCHKOTE™ fabric with the dermis side down. Using flat tipped tweezers to retain the dermis, the epidermis was removed from each strip with a round-tip spatula. Each epidermis, stratum comeum side up, was transferred to a PYREX™ glass tray which was filled with water. Each floating epidermis was stretched essentially flat. After removal from the water 2.22 cm (7/8 in.) diameter disks of each epidermis were punched out of areas having negligible surface damage. The disks were stored at 4° C. in a sealed container with water droplets to maintain their moisture.
(§2) The human cadaver epidermis disks were mounted between compartments 44 and 46 of the electrotransport permeation cell shown in FIG. 2. The cell was comprised of a polycarbonate support structure 52, including O-ring seals 54, and the assembly was held together with stainless steel bolt and nut 56. The human skin disk 42 separated the anodic compartment 44 and the cathodic compartment 46. A silver anode 48 was placed adjacent to the anodic compartment 44, and a silver chloride cathode 50 was placed adjacent to the cathodic compartment 46. The area of the human skin disk 42 exposed for transport was about 1.26 cm^2 and the volume of each of compartments 44 and 46 was about 2 ml. The electrodes 48, 50 were electrically connected to a galvanostat (not shown in FIG. 2), which can be set to apply the voltage necessary to achieve a constant predetermined level of electric current. The galvanostat was set to apply a current of 126 μA, ie, 100 μA/cm^2 across electrodes 48, 50 throughout each test.
(§3) Dulbecco's phosphate buffered saline (about 0.15M NaCl with minor amounts of other ions, pH 7.0) was placed in the anodic receptor compartment 44. The skin resistance was calculated from the voltages applied by the galvanostat according to Ohm's law, ie, Rskin =ΔV/i, where ΔV is the potential applied by the galvanostat, and i is the applied current, 126 microamps.
(§4) The system was maintained at about 32° C. by a Haake Model D1 heating block/water bath. The cell voltage was monitored over the entire procedure, and then averaged. The skin resistance was calculated from Ohm's law as described above using the measured ΔV.
(§5) The samples were automatically taken from the receptor compartment every one to two hours, except for overnight experimentation, with an Isco Model 2230 autosampler and a metering pump. […] Each run was conduced in triplicate, including the control, to minimize error. All cells were set up with tissue from the same cadaver. The selected permeation enhancer was placed in the donor compartment, while the control cell's donor compartment contained no enhancer.
(§6) Thus, the flux control and the skin conductivity control were each assigned a value of 1, and the flux/conductivity values obtained after addition of each permeation enhancer to the donor solution are normalized to the control.

For data set [2] the following is noted: for Normalized Ketoprofen Flux (after 5 hrs): control = 1.00, 100 μA/cm^2, about 32° C. The method, then:
as §1, §2, §3, §4, §5, §6

A short description of data set [3]: Water solubility of permeation enhancer. Conditions: at about 20° C. Type of data set: physicochemical.
The mark [4] stands for this setting: 10 mM enhancer, without ethanol, pH 7.20 (DMDDA), 6.90 (DDPDCl).
Where [5] appears, read: 25 mM enhancer in 20% Ethanol, pH 7.05.
[6] abbreviates: 25 mM enhancer, without ethanol, pH 6.90.
Where [7] appears, read: 1,2-dodecane diol with vs without ethanol.
The mark [8] stands for this setting: 10 mM enhancer in 20% Ethanol, pH 7.30 (ODAA), 7.00 (A3).

Where two headings read alike, the source gives them in different places.

In the case of `CCCCCCCCCCCCN(C)C` [DMDDA, N,N-dimethyl-dodecylamine], the “Normalized Skin Conductivity (after 5 hrs)” value (“Normalized Skin Conductivity” below) in data set [1] (setting [4]) came to 2.71. Besides, in data set [2] (setting [4]), the “Normalized Ketoprofen Flux (after 5 hrs)” value is 1.37.

With `CCCCCCCCCCCCO` [Dodecanol, dodecanol], in data set [1] (setting [5]), the “Normalized Skin Conductivity” value is on record as 34.7. Besides, the “enhancement (skin conductivity), in words” value in data set [1] is given as “greatest enhancement”. The “enhancement (flux), in words” value in data set [2] was “greatest enhancement”.

Turning to `CCCCCCCCCCC(O)CO` (stereo not shown) [1,2-Dodecanediol, 1,2-dodecane diol], the “Normalized Skin Conductivity” value was 6.81 in data set [1] (setting [5]) and 5.69 in data set [1] (setting [6]). For the same compound, the “increase in skin conductivity by presence of ethanol” value in data set [1] (setting [7]) is listed as “about 20%”. For the same compound, the “enhancement of skin conductivity relative to the other permeation enhancers” value in data set [1] (alone without ethanol) is reported as “more than double”. In addition, in data set [1], the “enhancement (skin conductivity), in words” value is “effective for enhancing both flux and skin conductivity in the presence and in the absence of ethanol”. In addition, the “Normalized Ketoprofen Flux (after 5 hrs)” value in data set [2] (setting [5]) came to 1.95; in data set [2] (setting [6]), 1.99. Further, the “effect of ethanol as solvent on ketoprofen flux” value in data set [2] (setting [7]) is given as “did not affect ketoprofen flux”. The “ketoprofen flux enhanced, relative to control value (in words)” value in data set [2] (addition of 1,2-dodecane diol) is “about double”. In addition, in data set [2] (ketoprofen flux, comparison among tested enhancers, with/without ethanol), the “enhancement (flux), in words” value was “effective for enhancing both flux and skin conductivity in the presence and in the absence of ethanol”. Further, the water solubility result in data set [3] is listed as “greater than 25 mM”.

On to `CCCCCCCCCCCC(=O)OCCCn1ccn(C)c1=O` [A3, 1-methyl-4-imidazoline-2-one-3-propylenedodecanoate], for which the “Normalized Skin Conductivity” value in data set [1] (setting [8]) is given as 5.93. For the same compound, in data set [2] (setting [8]), the “Normalized Ketoprofen Flux (after 5 hrs)” value came out at 1.76.

In the case of “octyl-N,N-dimethyl-dodecylamino acetate [ODAA]”, in data set [1] (setting [8]), the “Normalized Skin Conductivity” value is 4.61.
